Holding throughout (type): biochemical
Common to all, as to settings: enzyme

Assay [1] concerns the target T1, IRAK-4 (Homo sapiens, UniProt Q9NWZ3).
T1 construct: His6 (N); Dr.Jaekel
T1 sequence (Q9NWZ3 1-460): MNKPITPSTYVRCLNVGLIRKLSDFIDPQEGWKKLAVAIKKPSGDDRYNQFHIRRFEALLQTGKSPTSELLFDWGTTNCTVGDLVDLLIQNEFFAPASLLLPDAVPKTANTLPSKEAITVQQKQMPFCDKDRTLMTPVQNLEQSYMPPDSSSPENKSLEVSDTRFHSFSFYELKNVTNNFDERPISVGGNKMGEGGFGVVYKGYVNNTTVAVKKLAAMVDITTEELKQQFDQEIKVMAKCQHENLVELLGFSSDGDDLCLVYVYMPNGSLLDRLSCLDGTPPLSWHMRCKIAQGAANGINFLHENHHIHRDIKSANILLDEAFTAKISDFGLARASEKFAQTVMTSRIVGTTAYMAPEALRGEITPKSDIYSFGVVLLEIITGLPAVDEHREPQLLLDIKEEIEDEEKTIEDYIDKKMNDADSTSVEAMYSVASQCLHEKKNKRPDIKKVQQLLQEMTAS
Nature of the assay: Test for the inhibition of IRAK4 (flashplate, 33P-ATP). On the procedure:
(§1) The experimental batches are carried out in a flashplate system with 384 wells/microtitre plate. In each case, the IRAK4 sample His6-IRAK4 (7.3 nM), the biotinylated substrate peptide STK substrate 1-biotin (Cisbio Bioassays, France) (300 nM), 10 μM ATP (with 0.25 μCi of ^33P-ATP/well) and the test substance in 50 μl of conventional experimental solution per well are incubated at 22° C. for 180 min. The test substances are employed in corresponding concentrations (if desired in a dilution series). The control is carried out without test substance. The reaction is stopped using standard methods and washed. The activity of the kinase is measured via the incorporated radioactivity in top count. In order to determine the non-specific kinase reaction (blank value), the experimental batches are carried out in the presence of 1 μM staurosporin. The radioactivity (decompositions per minute) of the blank value (no use of test substance in the presence of 1 μM staurosporin) is subtracted from all other radioactivity values. The controls (kinase activity without test substance) are set equal to 100 percent and all other radioactivity values (after subtracting the blank value) are expressed set in relation thereto (for example in % of the control). IC50 values (50% inhibition) are determined with the aid of statistics programs, such as, for example, RS1.

In assay [2] the target is T2, IRAK-1 (Homo sapiens, UniProt P51617).
T2 construct: His6 (N); Dr.Jaekel Pool B, 232Y08C1.IRK
Nature of the assay: Test for the inhibition of IRAK1 (autophosphorylation, flashplate). On the procedure:
as §1, with “case, in order to investigate” for “case,”, “inhibition of the autophosphorylation activity of IRAK1, the IRAK1” for “IRAK4”, “His6-IRAK1 (5.1” for “His6-IRAK4 (7.3”, “1” for “the biotinylated substrate peptide STK substrate 1-biotin (Cisbio Bioassays, France) (300 nM), 10”

The target of assay [3] is T3, PDK1 (Homo sapiens, UniProt O15530).
T3 construct: His6 (N)
T3 sequence (O15530 51-556 limits assumed): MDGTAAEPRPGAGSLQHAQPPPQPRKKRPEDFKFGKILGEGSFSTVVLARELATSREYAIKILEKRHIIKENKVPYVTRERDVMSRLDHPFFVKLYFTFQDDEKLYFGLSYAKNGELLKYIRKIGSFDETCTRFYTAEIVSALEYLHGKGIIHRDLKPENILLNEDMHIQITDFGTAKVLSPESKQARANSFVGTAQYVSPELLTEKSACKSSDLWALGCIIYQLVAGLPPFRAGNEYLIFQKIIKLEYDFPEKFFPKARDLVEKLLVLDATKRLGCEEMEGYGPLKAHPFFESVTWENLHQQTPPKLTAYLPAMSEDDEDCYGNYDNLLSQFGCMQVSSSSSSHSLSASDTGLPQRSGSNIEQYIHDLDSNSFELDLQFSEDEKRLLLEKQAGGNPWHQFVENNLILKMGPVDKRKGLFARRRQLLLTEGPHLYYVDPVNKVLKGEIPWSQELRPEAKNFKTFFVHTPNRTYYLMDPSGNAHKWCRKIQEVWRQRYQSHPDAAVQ
Nature of the assay: Test for the inhibition of PDK1 (flashplate, 33P-ATP). On the procedure: The experimental batches are carried out in a flashplate system with 384 wells/microtitration plate.
In each case, the PDK1 sample His6-PDK1(1-50)(3.4 nM), the PDK1 substrate biotin-bA-bA-[…] (400 nM), 4 μM ATP (with 0.2 μCi of ^33P-ATP/well) and the test substance in 50 μl of conventional experimental solution per well are incubated at 30° C. for 60 min. The test substances are employed in corresponding concentrations (if desired in a dilution series). The control is carried out without test substance. The reaction is stopped using standard methods and washed. The activity of the kinase is measured via the incorporated radioactivity in top count. In order to determine the non-specific kinase reaction (blank value), the experimental batches are carried out in the presence of 100 nM staurosporin.
The radioactivity (decompositions per minute) of the blank value (no use of test substance in the presence of staurosporin) is subtracted from all other radioactivity values. The controls (kinase activity without test substance) are set equal to 100 percent and all other radioactivity values (after subtracting the blank value) are expressed set in relation thereto (for example in % of the control).
IC50 values (50% inhibition) are determined with the aid of statistics programmes, such as, for example, RS1.

The results in this text go back to patent publication US8648201B2, “Aminopyridine derivatives for treating tumors and inflammatory diseases” (MERCK PATENT GmbH, priority 2009, dated 2014).

Broadly, the IC50 is the point on the concentration scale where inhibition reaches its midpoint. Low values mean greater potency in that assay, high ones weaker potency in that assay.

The structures appear in SMILES notation.

T2 sequence (P51617 whole entry, species assumed): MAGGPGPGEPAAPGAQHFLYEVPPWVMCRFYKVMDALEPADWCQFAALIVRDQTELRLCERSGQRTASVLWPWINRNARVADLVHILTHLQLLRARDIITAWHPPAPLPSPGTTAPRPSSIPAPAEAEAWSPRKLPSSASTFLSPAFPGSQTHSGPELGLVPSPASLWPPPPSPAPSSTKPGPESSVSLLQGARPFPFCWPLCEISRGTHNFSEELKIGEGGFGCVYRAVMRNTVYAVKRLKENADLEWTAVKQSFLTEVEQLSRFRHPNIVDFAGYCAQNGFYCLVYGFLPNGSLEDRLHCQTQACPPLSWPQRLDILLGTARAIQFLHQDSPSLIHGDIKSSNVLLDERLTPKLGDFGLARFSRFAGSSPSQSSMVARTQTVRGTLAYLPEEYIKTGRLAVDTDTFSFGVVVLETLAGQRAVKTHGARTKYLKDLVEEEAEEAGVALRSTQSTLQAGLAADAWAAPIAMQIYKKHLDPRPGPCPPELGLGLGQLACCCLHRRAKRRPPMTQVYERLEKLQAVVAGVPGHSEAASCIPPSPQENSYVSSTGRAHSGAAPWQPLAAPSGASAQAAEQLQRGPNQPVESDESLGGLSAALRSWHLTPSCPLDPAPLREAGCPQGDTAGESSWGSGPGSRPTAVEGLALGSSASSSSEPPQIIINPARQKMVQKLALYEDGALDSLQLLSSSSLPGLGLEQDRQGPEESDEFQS

With `COCCNC(=O)c1ccc(-c2cnc(N)c(-c3nc4ccc(OC)cc4[nH]3)c2)s1` [Compound A130, N-(2-methoxyethyl)-5-[6-amino-5-(6-methoxy-1H-benzimidazol-2-yl)pyridin-3-yl]thiophene-2-carboxamide], the IC50 in assay [1] and in assay [2] was 1 to 100 nM throughout.
With `Nc1ncc(-c2cnn(C3CCNCC3)c2)cc1-c1nc2ccccc2[nH]1` [Compound A114, 3-(1H-Benzimidazol-2-yl)-5-(1-piperidin-4-yl-1H-pyrazol-4-yl)pyridin-2-ylamine], the IC50 in assay [1] fell in the range of 1 to 100 nM; in assay [2], 100 to 10000 nM.
For the compound `Nc1ncc(-c2cnn(C3CCNCC3)c2)cc1-c1nc2ccc(Cl)cc2[nH]1` [Compound A70], the IC50 in assay [1] fell in the range of 1 to 100 nM; in assay [2], 100 to 10000 nM.
In the case of `Cn1cc(-c2cnc(N)c(-c3nc4cc(CC(N)=O)ccc4[nH]3)c2)cn1` [Compound A120, 2-{2-[2-amino-5-(1-methyl-1H-pyrazol-4-yl)pyridin-3-yl]-1H-benzimidazol-5-yl}acetamide], the IC50 in assay [3] was in the range of 1 to 100 nM.
As for `Cn1cc(-c2cnc(N)c(-c3nc4cc5cn[nH]c5cc4[nH]3)c2)cn1` [Compound A115, 3-(1,7-Dihydroimidazo[4,5-f]indazol-6-yl)-5-(1-methyl-1H-pyrazol-4-yl)pyridin-2-ylamine], the IC50 in assay [1] and in assay [2] was 100 to 10000 nM throughout.
Consider `Cn1cc(-c2cnc(N)c(-c3nc4c(F)cc(F)cc4[nH]3)c2)cn1` [Compound A76], for which the IC50 in assay [1] was > 10000 nM; in assay [2] it was 100 to 10000 nM.
Turning to `Nc1ncc(-c2ccncc2)cc1-c1nc2ccccc2[nH]1` [Compound A32], the IC50 in assay [1] and in assay [2] was 100 to 10000 nM throughout.
In the case of `COc1ccc2nc(-c3cc(-c4cnn(CCCN(C)C)c4)cnc3N)[nH]c2c1` [Compound A96, 5-[1-(3-Dimethylaminopropyl)-1H-pyrazol-4-yl]-3-(6-methoxy-1H-benzimidazol-2-yl)pyridin-2-ylamine], the IC50 in assay [1] and in assay [2] was 100 to 10000 nM throughout.
In the case of `Nc1ncc(-c2cnn(C3CCNCC3)c2)cc1-c1nc2cc(S(N)(=O)=O)ccc2[nH]1` [Compound A62], the IC50 in assay [1] and in assay [2] was 100 to 10000 nM throughout.
For the compound `Cc1cccc2nc(-c3cc(-c4cnn(CCN5CCOCC5)c4)cnc3N)[nH]c12` [Compound A48], the IC50 in assay [1] and in assay [2] was 100 to 10000 nM each time.
On to `Nc1ncc(-c2cnn(C3CCNCC3)c2)cc1-c1nc2ccc(F)cc2[nH]1` [Compound A50], for which the IC50 in assay [1] is 1 to 100 nM; in assay [2] it was 100 to 10000 nM.
For `Cn1cc(-c2cnc(N)c(-c3nc4ccccc4[nH]3)c2)cn1` [Compound A34], in that order: 100 to 10000 nM and 100 to 10000 nM.
Compound `CC1CC(=O)NN=C1c1ccc2[nH]c(-c3cc(-c4cnn(CC(=O)N5CCN(C)CC5)c4)cnc3N)nc2c1` (stereo not drawn) [Compound A26, 6-[2-(2-Amino-5-{1-[2-(4-methylpiperazin-1-yl)-2-oxoethyl]-1H-pyrazol-4-yl}-pyridin-3-yl)-1H-benzimidazol-5-yl]-5-methyl-4,5-dihydro-2H-pyridazin-3-one] displayed an IC50 in assay [3] of 1 to 100 nM.
Compound `CC1CC(=O)NN=C1c1ccc2[nH]c(-c3cc(-c4cnn(CC(=O)O)c4)cnc3N)nc2c1` (stereo not drawn) [Compound A24, (4-{6-amino-5-[5-(4-methyl-6-oxo-1,4,5,6-tetrahydropyridazin-3-yl)-1H-benzimidazol-2-yl]pyridin-3-yl}pyrazol-1-yl)acetic acid] displayed an IC50 in assay [3] of 1 to 100 nM.
As to `COc1ccc2nc(-c3cc(-c4cnn(CCN(C)C)c4)cnc3N)[nH]c2c1` [Compound A94, 5-[1-(2-Dimethylaminoethyl)-1H-pyrazol-4-yl]-3-(6-methoxy-1H-benzimidazol-2-yl)pyridin-2-ylamine], the IC50 in assay [1] and in assay [2] was 100 to 10000 nM throughout.
Consider `CC(O)(c1ccccc1)c1ccc2[nH]c(-c3cc(-c4cnn(CCN5CCOCC5)c4)cnc3N)nc2c1` (stereo not drawn) [Compound A150, 1-(2-{2-Amino-5-[1-(2-morpholin-4-ylethyl)-1H-pyrazol-4-yl]pyridin-3-yl}-1H-benzimidazol-5-yl)-1-phenylethanol], for which the half-inhibitory concentration (IC50) in assay [3] was 100 to 10000 nM.
In assay [3], `CC1CC(=O)NN=C1c1ccc2[nH]c(-c3cc(-c4cnn(CC(=O)N(C)C)c4)cnc3N)nc2c1` (stereo not drawn) [Compound A25, 2-(4-{6-amino-5-[5-(4-methyl-6-oxo-1,4,5,6-tetrahydropyridazin-3-yl)-1H-benzimidazol-2-yl]pyridin-3-yl}pyrazol-1-yl)-N,N-dimethylacetamide] came in with an IC50 of 1 to 100 nM.
For `Cc1cc(Cl)cc2nc(-c3cc(-c4cnn(C5CCNCC5)c4)cnc3N)[nH]c12` [Compound A72], the IC50 in assay [1] and in assay [2] was 100 to 10000 nM each time.
As for `Nc1ccc(-c2cnc(N)c(-c3nc4ccccc4[nH]3)c2)cn1` [Compound A35], the half-inhibitory concentration (IC50) in assay [1] and in assay [2] was 100 to 10000 nM in each case.
Turning to `Cc1cccc2nc(-c3cc(-c4cnn(C)c4)cnc3N)[nH]c12` [Compound A42], the IC50 in assay [1] and in assay [2] was 100 to 10000 nM in each case.
In assay [3], `Nc1ncc(-c2cnn(C3CCNCC3)c2)cc1-c1nc2cc3[nH]c(=O)[nH]c3cc2[nH]1` [Compound A55] returned an IC50 of 1 to 100 nM.
Consider `Cn1cc(-c2cnc(N)c(-c3nc4ccc(CCN)cc4[nH]3)c2)cn1` [Compound A64], for which the IC50 in assay [3] was 1 to 100 nM.
Regarding `CC1CC(=O)NN=C1c1ccc2[nH]c(-c3cc(-c4cnn(C5CCNCC5)c4)cnc3N)nc2c1` (stereo not drawn) [Compound A17, 6-{2-[2-amino-5-(1-piperidin-4-yl-1H-pyrazol-4-yl)-pyridin-3-yl]-1H-benzimidazol-5-yl}-5-methyl-4,5-dihydro-2H-pyridazin-3-one], the IC50 in assay [3] was in the range of 1 to 100 nM.
With `COc1cc2nc(-c3cc(-c4cnn(C5CCNCC5)c4)cnc3N)[nH]c2cc1OC` [Compound A66], the IC50 in assay [1] and in assay [2] was 100 to 10000 nM each time.
Take `COc1ccc2nc(-c3cc(-c4cnn(Cc5cccs5)c4)cnc3N)[nH]c2c1` [Compound A113, 3-(6-Methoxy-1H-benzimidazol-2-yl)-5-(1-thiophen-2-ylmethyl-1H-pyrazol-4-yl)pyridin-2-ylamine]: the IC50 in assay [1] was 100 to 10000 nM; in assay [2], 1 to 100 nM.
